Data reported in EP4818177A1, “TRICYCLIC DERIVATIVE INHIBITOR, AND PREPARATION METHOD AND USE THEREFOR” (Shanghai Hansoh Biomedical Co., Ltd., priority 2023, dated 2025).

Tests used:
in vivo = settings: rat, po, 5 mg/kg
Experimental: (§2) Test Example 4: Determination of the pharmacokinetics of the compounds of the present invention in rats (plasma) after oral administration.
(§3) Study objective: SD rats were used as test animals to study the pharmacokinetic behaviour of the following example compounds in rats (plasma) after oral administration at a dose of 5 mg/kg. […] Test scheme 2.1 Test drugs: Vehicle formula: 0.5% CMC-Na (1% Tween 80); the examples of the present invention, prepared in house. 2.2 Test animals: 3 SD rats per group, male, purchased from Shanghai Bikai Keyi Biotechnology Co., Ltd., with animal license number (SCXK (Shanghai) 2018-0006, No.20180006037467). 2.3 Administration: 3 SD rats per group, male, were fasted overnight and then respectively administered PO at a dose of 5 mg/kg and a volume of 10 mL/kg. 2.4 Sample collection: 0.2 mL of blood was collected from the jugular vein of rats before administration and at 0, 0.25, 0.5, 1, 2, 4, 6, 8 and 24 h after administration, and placed in EDTA-K2test tubes, and the test tubes were centrifuged at 6,000 rpm at 4°C for 6 min to separate the plasma, which was stored at -80°C. The animals were fed 4 h after administration. 2.5 Sample treatment • 1) 160 uL of acetonitrile was added to 40 uL of plasma sample for precipitation, and after mixing, the mixture was centrifuged at 3,500 × g for 5-20 minutes. • 2) 100 uL of the treated supernatant solution was taken for LC/MS/MS analysis to determine the concentration of the test compounds. 2.6 Liquid phase analysis • Liquid phase conditions: Shimadzu LC-20AD pump; • Mass spectrometry conditions: AB Sciex API 4000 mass spectrometer; • Chromatographic column: phenomenex Gemiu 5 um C18 50 × 4.6 mm; • Mobile phase: solution A: 0.1% formic acid in water, solution B: methanol; • flow rate: 1.0 mL/min; Elution time: 0-4.0 min, with eluents as follows:
(§4) Experimental results and analysis: The main pharmacokinetic parameters were calculated using WinNonlin 8.2.

[1] = molecular target: T1, PRMT5/MEP50-MTA protein complex (Homo sapiens, UniProt O14744); assay: Thermal shift assay: change in melting temperature of the PRMT5/MEP50-MTA protein complex; assay type: binding; settings: compound 8 µM, PRMT5/MEP50 2 µM, MTA 2 µM; Tm minus DMSO vehicle control
T1 construct: purchased Viva Biotech
T1 sequence (O14744 whole entry): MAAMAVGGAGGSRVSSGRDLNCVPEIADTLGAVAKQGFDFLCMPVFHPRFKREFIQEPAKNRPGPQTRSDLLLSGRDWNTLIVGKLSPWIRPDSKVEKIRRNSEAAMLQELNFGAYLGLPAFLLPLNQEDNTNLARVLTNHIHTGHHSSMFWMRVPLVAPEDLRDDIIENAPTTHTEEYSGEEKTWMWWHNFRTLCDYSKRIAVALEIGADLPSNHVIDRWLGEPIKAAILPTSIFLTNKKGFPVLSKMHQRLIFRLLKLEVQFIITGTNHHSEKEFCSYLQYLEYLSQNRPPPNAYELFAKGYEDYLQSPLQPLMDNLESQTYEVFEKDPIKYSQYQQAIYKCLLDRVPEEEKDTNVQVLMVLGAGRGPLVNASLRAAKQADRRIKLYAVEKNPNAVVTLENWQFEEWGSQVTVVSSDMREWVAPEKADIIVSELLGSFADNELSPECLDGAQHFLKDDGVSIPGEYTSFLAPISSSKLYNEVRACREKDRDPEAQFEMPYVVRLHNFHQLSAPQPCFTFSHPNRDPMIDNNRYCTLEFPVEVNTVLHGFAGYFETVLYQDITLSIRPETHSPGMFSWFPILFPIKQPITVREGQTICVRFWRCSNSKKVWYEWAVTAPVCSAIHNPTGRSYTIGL
T1 sequence (Q9BQA1 whole entry partner): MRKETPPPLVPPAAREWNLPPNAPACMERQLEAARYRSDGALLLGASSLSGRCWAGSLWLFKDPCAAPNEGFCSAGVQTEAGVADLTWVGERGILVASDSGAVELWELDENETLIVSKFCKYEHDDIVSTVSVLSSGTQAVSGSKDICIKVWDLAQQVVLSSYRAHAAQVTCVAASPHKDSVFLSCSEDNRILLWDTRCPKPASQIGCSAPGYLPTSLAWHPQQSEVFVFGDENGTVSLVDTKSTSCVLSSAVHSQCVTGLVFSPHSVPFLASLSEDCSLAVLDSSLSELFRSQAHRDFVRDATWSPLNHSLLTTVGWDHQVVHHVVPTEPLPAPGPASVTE
Summary of the method: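 Human PRMT5/MEP50 (2 µM) preincubated 30 min at room temperature in 50 mM HEPES, 10 mM DTT, 250 mM NaCl with 2 µM MTA and SYPRO Orange. Compound at 8 µM final, 10 min at room temperature, 2.5% DMSO vehicle control. Melt curve 25→95°C at 0.03°C/s gives Tm.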

[2] = test system: MTAP Knockout HCT116 cells; assay: Cell proliferation inhibition (CellTiter-Glo), MTAP knockout cells; assay type: cell-based; settings: for Selectivity: HCT116 versus MTAP Knockout HCT116; for IC50: Homo sapiens, HCT-116, MTAP Knockout HCT116 cells, 72-240 hours incubation, CellTiter-Glo
Summary of the method: (§1)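 HCT116 wild-type and MTAP knockout cells in McCoy's 5A with 10% FBS were seeded overnight, then exposed to compound dilutions for 72–240 h at 37°C, 5% CO2. Viability was read by CellTiter-Glo luminescence. IC50 came from non-linear regression of inhibition versus concentration.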

HCT116 wild-type cells = assay: Cell proliferation inhibition (CellTiter-Glo), wild-type cells; assay type: cell-based; settings: 72-240 hours incubation
Summary of the method: as §1

[3] = Pharmacokinetics in rats (plasma) after oral administration; settings: male, SD, rat, 5 mg/kg
Experimental: as §2, §3, §4

hERG potassium channel = molecular target: T2, hERG potassium channel (Homo sapiens, UniProt Q12809); assay: hERG potassium channel inhibitory activity assay (patch clamp, CHO-hERG cells); assay type: cell-based; settings: tail current, read-out: inhibitory activity (IC50) against the cardiac hERG potassium channel
T2 construct: host or cells: CHO cells stably expressing hERG (CHO-hERG)
T2 sequence (Q12809 whole entry): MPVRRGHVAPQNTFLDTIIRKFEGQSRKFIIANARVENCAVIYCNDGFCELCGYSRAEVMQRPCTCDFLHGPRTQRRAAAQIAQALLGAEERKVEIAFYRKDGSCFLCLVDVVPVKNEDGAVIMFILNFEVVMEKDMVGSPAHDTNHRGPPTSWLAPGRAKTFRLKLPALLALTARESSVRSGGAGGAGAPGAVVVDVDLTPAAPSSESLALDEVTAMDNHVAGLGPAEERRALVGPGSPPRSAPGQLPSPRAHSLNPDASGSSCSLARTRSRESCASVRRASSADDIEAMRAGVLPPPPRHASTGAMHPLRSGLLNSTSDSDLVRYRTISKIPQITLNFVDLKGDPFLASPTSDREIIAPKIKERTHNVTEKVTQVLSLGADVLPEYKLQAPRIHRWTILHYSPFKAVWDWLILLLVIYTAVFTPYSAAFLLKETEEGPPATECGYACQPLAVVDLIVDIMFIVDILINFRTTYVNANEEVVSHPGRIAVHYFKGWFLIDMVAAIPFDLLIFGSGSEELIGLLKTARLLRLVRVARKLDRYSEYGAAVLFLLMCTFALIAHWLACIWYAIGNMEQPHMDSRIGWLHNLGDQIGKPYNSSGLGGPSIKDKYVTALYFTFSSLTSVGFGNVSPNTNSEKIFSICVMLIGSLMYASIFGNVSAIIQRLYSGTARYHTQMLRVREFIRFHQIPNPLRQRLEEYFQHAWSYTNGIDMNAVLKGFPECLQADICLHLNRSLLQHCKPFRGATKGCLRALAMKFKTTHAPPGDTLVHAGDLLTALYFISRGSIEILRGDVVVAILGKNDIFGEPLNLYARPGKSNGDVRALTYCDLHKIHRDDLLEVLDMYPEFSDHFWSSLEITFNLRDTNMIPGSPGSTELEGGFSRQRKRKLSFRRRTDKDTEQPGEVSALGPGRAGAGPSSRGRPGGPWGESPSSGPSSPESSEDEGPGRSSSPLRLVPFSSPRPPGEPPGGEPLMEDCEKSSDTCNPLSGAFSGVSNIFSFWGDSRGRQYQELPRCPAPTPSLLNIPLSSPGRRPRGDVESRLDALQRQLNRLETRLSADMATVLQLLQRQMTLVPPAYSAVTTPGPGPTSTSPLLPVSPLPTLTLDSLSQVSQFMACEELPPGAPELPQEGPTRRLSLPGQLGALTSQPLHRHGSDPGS
Excerpt: Test Example 5: hERG potassium channel inhibitory activity assay
1. Study objective: to determine the inhibitory effect of the compound on the hERG potassium channel activity. 2. Experimental instruments and reagents: 2.1 Reagents
3. Experimental methods • 3.1 Cell culture: The CHO cells stably expressing the hERG potassium channel (CHO-hERG) used in the experiment were obtained from Sophion Bioscience (Ballerup, Denmark), and passaged and cryopreserved at WuXi AppTec Co., Ltd. in Shanghai. The CHO-hERG cells were cultured and passaged in Ham's F-12 medium containing 1 × GlutaMAX, 10% fetal bovine serum, 100 µg/mL G418 and 100 µg/mL hygromycin B at 37°C with 5% CO2. • 3.2 Preparation of intracellular and extracellular solutions: The extracellular solution was prepared once a month, and aliquoted and stored in 1 L storage bottles. The intracellular solution was prepared once every three months, and aliquoted and cryopreserved at -20°C. The intracellular solution was thawed in a 37°C water bath before the experiment and then placed in an ice bath for later use. • 3.3 Preparation of compounds: The compounds were dissolved in 100% DMSO (Sigma-Aldrich, D2650) to prepare 10 mM or 30 mM stock solutions. Before the experiment, the stock solutions of the test compounds were diluted with DMSO to prepare solutions 1000-fold or 333-fold higher than the desired test concentrations, and then further diluted 1000-fold or 333-fold with the extracellular solution to achieve the desired concentrations. • 3.4 Cell preparation: The CHO-hERG cells used in the experiment were cultured for at least two days. When the cell density reached more than 75%, the cells were digested with TrypLE, then resuspended in the extracellular solution, and centrifuged. The supernatant was discarded, and then the cells were further resuspended in 2 mL of extracellular solution for later use. 4. Experimental data processing: In data processing, the peak tail current was baseline-corrected when evaluating the hERG blocking effect. The effect of each compound at various concentrations was expressed as the inhibition rate of the tail current. IC50 values were obtained by fitting the data to the Hill equation: I/Icontrol = Bottom + (Top−Bottom)/(1+10^(∧)((LogIC50−X)*HillSlope)) [formula] • Top: maximum effect; Bottom: minimum effect; Hillslope: slope; X: concentration of the test compound. • IC50: half-maximal inhibitory concentration of the test compound on hERG. […] 5.

SMILES	AUC(0-inf) (in vivo) [ng·h/mL]	Cmax (in vivo) [ng/mL]	MRT inf (in vivo) [h]	Tmax (in vivo) [h]	half-life (in vivo) [h]	ΔTm at 8 µM [1] [°C]	Selectivity [2]	IC50 [2] [nM]	IC50 (HCT116 wild-type cells; Homo sapiens, HCT-116, HCT116 wild-type cells) [nM]	AUC(0-inf) [3] [ng·h/mL]	Cmax [3] [ng/mL]	MRT inf [3] [h]	Tmax [3] [h]	half-life [3] [h]	IC50 (hERG potassium channel) [nM]	IC50 (HCT116 wild-type cells; HCT116 wild-type cells) [nM]
CNN(C(=O)c1cc2c3c(c(N)nc2cn1)COC3)C1COc2cc(S(F)(F)(F)(F)F)ccc21 (single isomer, unassigned) [Example 372-P1]	2570	378	4.8	2.7	2.7	11.6	69	12	819							
[2H]C([2H])([2H])NN(C(=O)c1cc2c(cn1)nc(N)c1cnn(C)c12)C1COCc2c1ccn1c(C(F)(F)F)cnc21 (stereo not shown) [Example 391, 4-Amino-1-methyl-N'-(methyl-d3)-N-(3-trifluoromethyl-7,10-dihydro-8H-imidazo[1,2-a]pyrano[3,4-c]pyridin-7-yl)-1H-pyrazolo[4,3-c][1,7]naphthyridine-8-carbohydrazide]						12.7	28	13		11900	1690	5.8	1.5	4.4	> 30000	358
